US12534425B2, “Phenalkylamines and methods of treating mood disorders” (GILGAMESH PHARMACEUTICALS, INC., priority 2020, dated 2026)

What was measured:
C57BL/6 mice = assay: Head twitch response (HTR) in mice; format: in vivo; settings: for Average HTR (SEM): counted for 20 min; for ED50: Mus musculus, sc, Gaussian dose-response fit, read-out: HTR ED50 (95% CI); for maximal HTR effect: s.c., maximal effect over doses
Procedure: Animals. Adult male C57BL/6 mice, aged 8 weeks (body weight 20-25 g) were used in these experiments. Animals were housed under controlled temperatures and 12-hour light/dark cycles (lights on between 07:00-19:00 h), with ad libitum food and water. All efforts were made to minimize suffering.
Drugs and Drug Administration. Compound 1 was synthesized as described above. […] All compounds were used as the HCl salts, dissolved in a vehicle consisting of normal saline, and administered subcutaneously (s.c.) in a volume of 10 mL/kg. […] Group size was N=6 animals/group.
Procedure. Mice were administered one dose of a test drug (or vehicle) s.c. and immediately placed into a small open field for behavioral observation.
Statistical Analysis. The data points shown in Table 4 are the mean±standard error of the mean (SEM). Dose-response curves were fit and ED50s calculated using the Gaussian 2020 function in GraphPad Prism 9.

5-HT2A receptor [1] = target: T1, 5-HT2A receptor (Homo sapiens (Human), UniProt P28223); assay: 5-HT2A receptor radioligand binding ([3H]ketanserin); settings: for Ki: 1 nM [3H]ketanserin, HEK293 stable cell line
Procedure: Methods. Affinity of the test compounds for the 5-HT2A receptor was determined in radioligand binding experiments with [^3H]ketanserin by WuXi AppTec (Hong Kong) Limited, using methods adapted from the literature and under conditions described in Table 2.

[2] = Metabolic stability in cynomolgus monkey liver microsomes (CLM); settings: male, pooled liver microsomes, pH 7.4
5-HT2B receptor = 5-HT2B receptor (Homo sapiens (Human), UniProt P41595); assay: FLIPR Ca2+ flux agonist assay at 5-HT2B; format: cell-based
Procedure: (§1) The functional activity of Compound 1 at several serotonin (5-HT) receptor subtypes (5-HT2A, 5-HT2B, and 5-HT1A) was determined in Ca^2+ flux assays, with the results summarized in Table 3.
(§2) Functional Assays at 5-HT2A, 5-HT2B, and 5-HT1A Receptors. Agonist activity at 5-HT2A, 5-HT2B, and 5-HT1A receptors was determined using a FLIPR Ca^2+ flux assay at WuXi AppTec (Hong Kong) Limited according to their standard protocols. Briefly, stably transfected cells expressing the receptor of interest (HEK293 for 5-HT2A and 5-HT2B; CHO cells for 5-HT1A) were grown and plated in a 384 well plate and incubated at 37° C. and 5% CO2 overnight. A solution of 250 mM probenecid in 1 mL FLIPR assay buffer was prepared fresh. This was combined with a fluorescent dye (Fluo-4 Direct™) to make a final assay concentration of 2.5 mM. Compounds were diluted 1:3.16 for 10 points and 750 nL was added to a 384 well compound plate using ECHO along with 30 μL assay buffer. The fluorescent dye was then added to the assay plate along with assay buffer to a final volume of 40 μL. The cell plate was incubated for 50 min at 37° C. and 5% CO2 and placed into the FLIPR Tetra along with the compound plate. 10 μL of references and compounds were then transferred from the compound plate into the cell plate and the fluorescent signal was read.

5-HT2A receptor [3] = target: T1, 5-HT2A receptor; assay: FLIPR Ca2+ flux agonist assay at 5-HT2A; format: cell-based
Procedure: as §1, §2

5-HT1A receptor = 5-HT1A receptor (Homo sapiens (Human), UniProt P08908); assay: FLIPR Ca2+ flux agonist assay at 5-HT1A; format: cell-based
Procedure: as §1, §2

[4] = Ca2+ flux, HEK293 cells, max dose

Sequence of 5-HT2B receptor (P41595 whole entry): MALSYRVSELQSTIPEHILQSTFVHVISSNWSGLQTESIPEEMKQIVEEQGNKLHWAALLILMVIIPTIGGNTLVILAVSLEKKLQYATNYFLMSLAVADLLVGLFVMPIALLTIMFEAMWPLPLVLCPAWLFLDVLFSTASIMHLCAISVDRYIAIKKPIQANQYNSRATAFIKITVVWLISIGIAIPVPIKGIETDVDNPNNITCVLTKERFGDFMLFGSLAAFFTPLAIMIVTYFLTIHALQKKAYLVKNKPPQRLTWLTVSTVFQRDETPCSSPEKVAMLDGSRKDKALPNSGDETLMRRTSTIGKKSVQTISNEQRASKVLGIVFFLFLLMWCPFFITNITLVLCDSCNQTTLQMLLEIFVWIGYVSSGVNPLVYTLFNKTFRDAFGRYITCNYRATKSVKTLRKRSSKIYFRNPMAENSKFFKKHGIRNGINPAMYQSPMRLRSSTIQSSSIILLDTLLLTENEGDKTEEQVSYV

Compound | Average HTR (SEM) (C57BL/6 mice; 0.1 mg/kg s.c.) | Average HTR (SEM) (C57BL/6 mice; 0.316 mg/kg s.c.) | Average HTR (SEM) (C57BL/6 mice; 1 mg/kg s.c.) | Average HTR (SEM) (C57BL/6 mice; 3.16 mg/kg s.c.) | Average HTR (SEM) (C57BL/6 mice; 10 mg/kg s.c.) | ED50 (C57BL/6 mice) | maximal HTR effect (C57BL/6 mice) | Ki (5-HT2A receptor [1]) | half-life at 1 μM [2] | microsomal CLint at 1 μM [2] | Average HTR (SEM) (C57BL/6 mice; 31.6 mg/kg s.c.) | EC50 (5-HT2B receptor) | 5-HT2B % Act @ Max Dose (5-HT2B receptor; [4]) | binding affinity at the 5-HT2A receptor (in words) (5-HT2A receptor [1]; compared to closely related compounds) | EC50 (5-HT2A receptor [3]) | selectivity among 5-HT receptors (in words) (5-HT2A receptor [3]; 5-HT2A over 5-HT2B and 5-HT1A, Ca2+ flux) | agonist activity at the 5-HT2A receptor (in words) (5-HT2A receptor [3]; Ca2+ flux) | 5-HT2A % Act @ Max Dose (5-HT2A receptor [3]; [4]) | EC50 (5-HT1A receptor) | 5-HT1A % Act @ Max Dose (5-HT1A receptor; Ca2+ flux, CHO cells, max dose)
COc1cc(CC(C)N)c(OC)cc1I (stereo not drawn) [DOI, 4-iodo-2,5-dimethoxyamphetamine] | 5.5 (0.85) | 13.0 (2.07) | 29.3 (2.29) | 35.6 (3.37) | 22.7 (1.52) | 0.43 mg/kg | 35.6 head twitches/20 min | – | – | – | – | – | – | – | – | – | – | – | – | –
CCc1cc(OC)c(CCN)cc1OC [Compound 2C-E] | – | – | – | – | – | – | – | 16.7 nM | 1.31 h | 17.6 µL/min/mg | – | – | – | – | – | – | – | – | – | –
COc1cc(CCN)c(OC)cc1Br [Compound 2C-B] | – | – | – | – | – | – | – | – | 1.25 h | 18.4 µL/min/mg | – | – | – | – | – | – | – | – | – | –
COc1cc(C(F)(F)F)c(OC)cc1CCN [Compound 2C-TFM, 2,5-dimethoxy-4-(trifluoromethyl)phenethylamine] | – | 6.5 (0.89) | 19.2 (2.47) | 19.2 (2.37) | 17.2 (1.62) | 0.43 mg/kg | 19.2 head twitches/20 min | 15.8 nM | – | – | 9.3 (1.12) | – | – | – | – | – | – | – | – | –
C=CCc1cc(OC)c(CCN)cc1OC [Compound 1, 2-(4-allyl-2,5-dimethoxyphenyl)ethan-1-amine] | 8.8 (0.79) | 13.3 (0.49) | 23.0 (1.21) | 28.8 (1.58) | 24.3 (2.04) | 0.28 mg/kg | 28.8 head twitches/20 min | 90.4 nM | 0.705 h | 32.8 µL/min/mg | – | 77.7 nM | 74.87% | reduced binding affinity | 2.15 nM | selective for the 5-HT2A receptor over the 5-HT2B and 5-HT1A receptors | potent and highly efficacious agonist | 110.99% | > 100000 nM | 13.25%
